Source: ChEMBL document CHEMBL5390317, “Novel Indane-Containing NBTIs with Potent Anti-Gram-Negative Activity and Minimal hERG Inhibition” (ACS Med Chem Lett, 2023)
Converted amounts (≈) assume the structure as drawn. The source made the active and inactive calls. The rule behind the calls is not given here.

Assays:
[1] = Aqueous solubility of the compound at pH 6.5 at > 0.5 mg/ml; format: physicochemical; conditions: buffer
Escherichia coli [2] = experiment: Antibacterial activity against Escherichia coli ATCC 25922 assessed as inhibition in bacterial growth incubated for 20 to 24 hrs by CLSI based broth microdilution method; format: functional; conditions: time 20-24 hrs
Acinetobacter baumannii [3] = experiment: Antibacterial activity against Acinetobacter baumannii ATCC 19606 assessed as inhibition in bacterial growth incubated for 20 to 24 hrs by CLSI based broth microdilution method; format: functional; conditions: time 20-24 hrs
Klebsiella pneumoniae [4] = experiment: Antibacterial activity against Klebsiella pneumoniae ATCC BAA-1705 assessed as inhibition in bacterial growth incubated for 20 to 24 hrs by CLSI based broth microdilution method; format: functional; conditions: time 20-24 hrs
Pseudomonas aeruginosa [5] = experiment: Antibacterial activity against Pseudomonas aeruginosa ATCC 27853 assessed as inhibition in bacterial growth incubated for 20 to 24 hrs by CLSI based broth microdilution method; format: functional; conditions: time 20-24 hrs
DNA gyrase = DNA gyrase (Escherichia coli, UniProt P0AES4+P0AES6); experiment: Inhibition of Escherichia coli DNA gyrase incubated for 80 mins by Transcreener ADP2 FI assay; format: protein-complex assay
hERG (KCNH2) [6] = target: T1, hERG (KCNH2) (Homo sapiens, UniProt Q12809); experiment: Inhibition of hERG potassium channel expressed in CHO cells at 10 uM by electrophysiological patch clamp assay relative to control; format: toxicity, cell-based; conditions: CHO cells expressing hERG
Escherichia coli [7] = experiment: Antibacterial activity against Escherichia coli K-12 BW25113 assessed as inhibition in bacterial growth incubated for 20 to 24 hrs by CLSI based broth microdilution method; format: functional; conditions: Escherichia coli, K-12 BW25113, time 20-24 hrs; read-out: MIC
Escherichia coli [8] = experiment: Antibacterial activity against Escherichia coli K-12 BW25113 deltaTolC assessed as inhibition in bacterial growth incubated for 20 to 24 hrs by CLSI based broth microdilution method; format: functional; conditions: time 20-24 hrs
Escherichia coli [9] = experiment: Antibacterial activity against Escherichia coli ATCC 35218 assessed as inhibition in bacterial growth incubated for 20 to 24 hrs by CLSI based broth microdilution method; format: functional; conditions: Escherichia coli, ATCC 35218, time 20-24 hrs; read-out: MIC
Escherichia coli [10] = experiment: Antibacterial activity against Escherichia coli ATCC BAA-2340 assessed as inhibition in bacterial growth incubated for 20 to 24 hrs by CLSI based broth microdilution method; format: functional; conditions: Escherichia coli, ATCC BAA-2340, time 20-24 hrs; read-out: MIC
Acinetobacter baumannii [11] = experiment: Antibacterial activity against Acinetobacter baumannii ATCC 51432 assessed as inhibition in bacterial growth incubated for 20 to 24 hrs by CLSI based broth microdilution method; format: functional; conditions: Acinetobacter baumannii, ATCC 51432, time 20-24 hrs; read-out: MIC
Acinetobacter baumannii [12] = experiment: Antibacterial activity against Acinetobacter baumannii ATCC BAA-747 assessed as inhibition in bacterial growth incubated for 20 to 24 hrs by CLSI based broth microdilution method; format: functional; conditions: Acinetobacter baumannii, ATCC BAA-747, time 20-24 hrs; read-out: MIC
Klebsiella pneumoniae [13] = experiment: Antibacterial activity against Klebsiella pneumoniae ATCC 10031 assessed as inhibition in bacterial growth incubated for 20 to 24 hrs by CLSI based broth microdilution method; format: functional; conditions: time 20-24 hrs
Klebsiella pneumoniae [14] = experiment: Antibacterial activity against Klebsiella pneumoniae ATCC 700603 assessed as inhibition in bacterial growth incubated for 20 to 24 hrs by CLSI based broth microdilution method; format: functional; conditions: Klebsiella pneumoniae, ATCC 700603, time 20-24 hrs; read-out: MIC
Klebsiella pneumoniae [15] = experiment: Antibacterial activity against Klebsiella pneumoniae ATCC BAA-2146 assessed as inhibition in bacterial growth incubated for 20 to 24 hrs by CLSI based broth microdilution method; format: functional; conditions: Klebsiella pneumoniae, ATCC BAA-2146, time 20-24 hrs; read-out: MIC
Pseudomonas aeruginosa [16] = experiment: Antibacterial activity against Pseudomonas aeruginosa NCTC 13437 assessed as inhibition in bacterial growth incubated for 20 to 24 hrs by CLSI based broth microdilution method; format: functional; conditions: Pseudomonas aeruginosa, NCTC 13437, time 20-24 hrs; read-out: MIC
Pseudomonas aeruginosa [17] = experiment: Antibacterial activity against Pseudomonas aeruginosa NCTC 11451 assessed as inhibition in bacterial growth incubated for 20 to 24 hrs by CLSI based broth microdilution method; format: functional; conditions: Pseudomonas aeruginosa, NCTC 11451, time 20-24 hrs; read-out: MIC
Staphylococcus aureus [18] = experiment: Antibacterial activity against Staphylococcus aureus ATCC BAA-1556 assessed as inhibition in bacterial growth incubated for 20 to 24 hrs by CLSI based broth microdilution method; format: functional; conditions: Staphylococcus aureus, ATCC BAA-1556, time 20-24 hrs; read-out: MIC
Staphylococcus aureus [19] = experiment: Antibacterial activity against Staphylococcus aureus ATCC 29213 assessed as inhibition in bacterial growth incubated for 20 to 24 hrs by CLSI based broth microdilution method; format: functional; conditions: Staphylococcus aureus, ATCC 29213; time 20-24 hrs; read-out: MIC
[20] = Inhibition of Escherichia coli topoisomerase 4 incubated for 120 mins by Transcreener ADP2 FI assay
hERG (KCNH2) [21] = target: T1, hERG (KCNH2); experiment: Inhibition of hERG potassium channel expressed in CHO cells at 1 uM by electrophysiological patch clamp assay relative to control; format: toxicity, cell-based; conditions: CHO cells expressing hERG
[22] = target: Voltage-gated inwardly rectifying potassium channel KCNH2 (Homo sapiens, UniProt Q12809); experiment: (§1) Inhibition of hERG potassium channel expressed in CHO cells by electrophysiological patch clamp assay; format: toxicity, cell-based
hERG (KCNH2) [23] = target: T1, hERG (KCNH2); experiment: as §1; format: toxicity, cell-based; conditions: human, CHO cells expressing hERG
[24] = Stability in mouse microsome; format: ADME; conditions: microsomes
[25] = Stability in rat microsome; format: ADME; conditions: microsomes
[26] = Stability in human microsome; format: ADME; conditions: microsomes
[27] = Stability in human hepatocyte; format: ADME, cell-based; conditions: hepatocytes
CYP3A4 = CYP3A4 (Homo sapiens, UniProt P08684); experiment: Inhibition of CYP3A4 (unknown origin) at 10 uM relative to control; format: ADME
CYP2D6 = CYP2D6 (Homo sapiens, UniProt P10635); experiment: Inhibition of CYP2D6 (unknown origin) at 10 uM relative to control; format: ADME
CYP2C9 = CYP2C9 (Homo sapiens, UniProt P11712); experiment: Inhibition of CYP2C9 (unknown origin) at 10 uM relative to control; format: ADME
[28] = Cytotoxicity against HEK293 cells; format: toxicity, cell-based; conditions: human
[29] = Protein binding in human plasma assessed as free fraction; format: ADME, cell-free
[30] = Protein binding in mouse plasma assessed as free fraction; format: ADME, cell-free
[31] = Protein binding in rat plasma assessed as free fraction; format: ADME, cell-free
Pseudomonas aeruginosa [32] = experiment: Antibacterial activity against pseudomonas aeruginosa ATCC 27853 infected in neutropenic CD-1 lung infection mouse model assessed as reduction in colony forming unit in lung at 15 mg/kg, sc TID administered at 8 hrs interval for 24 hrs; format: functional, organism-based
Pseudomonas aeruginosa [33] = experiment: Antibacterial activity against pseudomonas aeruginosa ATCC 27853 infected in neutropenic CD-1 lung infection mouse model assessed as reduction in colony forming unit in lung at 45 mg/kg, sc TID administered for 24 hrs; format: functional, organism-based
Pseudomonas aeruginosa [34] = experiment: Bactericidal effect against pseudomonas aeruginosa ATCC 27853 infected in neutropenic CD-1 lung infection mouse model assessed as reduction in colony forming unit in lung at 45 mg/kg, sc TID administered at […] interval for 24 hrs; format: functional
[35] = Drug excretion in Wistar-Han rat urine assessed as parent compound remaining at 3 mg/kg, iv administered upto 48 hrs by LC-MS/MS method; format: ADME, organism-based; conditions: read-out: Drug excretion
[36] = Stability in mouse hepatocyte; format: ADME, cell-based; conditions: hepatocytes
[37] = Stability in rat hepatocyte; format: ADME, cell-based; conditions: hepatocytes
Pseudomonas aeruginosa [38] = experiment: Bacteriostatic effect against pseudomonas aeruginosa ATCC 27853 infected in neutropenic CD-1 lung infection mouse model assessed as reduction in colony forming unit at 15 mg/kg, sc TID administered at 8 hrs interval for 24 hrs; format: functional, organism-based

T1 sequence (Q12809 whole entry): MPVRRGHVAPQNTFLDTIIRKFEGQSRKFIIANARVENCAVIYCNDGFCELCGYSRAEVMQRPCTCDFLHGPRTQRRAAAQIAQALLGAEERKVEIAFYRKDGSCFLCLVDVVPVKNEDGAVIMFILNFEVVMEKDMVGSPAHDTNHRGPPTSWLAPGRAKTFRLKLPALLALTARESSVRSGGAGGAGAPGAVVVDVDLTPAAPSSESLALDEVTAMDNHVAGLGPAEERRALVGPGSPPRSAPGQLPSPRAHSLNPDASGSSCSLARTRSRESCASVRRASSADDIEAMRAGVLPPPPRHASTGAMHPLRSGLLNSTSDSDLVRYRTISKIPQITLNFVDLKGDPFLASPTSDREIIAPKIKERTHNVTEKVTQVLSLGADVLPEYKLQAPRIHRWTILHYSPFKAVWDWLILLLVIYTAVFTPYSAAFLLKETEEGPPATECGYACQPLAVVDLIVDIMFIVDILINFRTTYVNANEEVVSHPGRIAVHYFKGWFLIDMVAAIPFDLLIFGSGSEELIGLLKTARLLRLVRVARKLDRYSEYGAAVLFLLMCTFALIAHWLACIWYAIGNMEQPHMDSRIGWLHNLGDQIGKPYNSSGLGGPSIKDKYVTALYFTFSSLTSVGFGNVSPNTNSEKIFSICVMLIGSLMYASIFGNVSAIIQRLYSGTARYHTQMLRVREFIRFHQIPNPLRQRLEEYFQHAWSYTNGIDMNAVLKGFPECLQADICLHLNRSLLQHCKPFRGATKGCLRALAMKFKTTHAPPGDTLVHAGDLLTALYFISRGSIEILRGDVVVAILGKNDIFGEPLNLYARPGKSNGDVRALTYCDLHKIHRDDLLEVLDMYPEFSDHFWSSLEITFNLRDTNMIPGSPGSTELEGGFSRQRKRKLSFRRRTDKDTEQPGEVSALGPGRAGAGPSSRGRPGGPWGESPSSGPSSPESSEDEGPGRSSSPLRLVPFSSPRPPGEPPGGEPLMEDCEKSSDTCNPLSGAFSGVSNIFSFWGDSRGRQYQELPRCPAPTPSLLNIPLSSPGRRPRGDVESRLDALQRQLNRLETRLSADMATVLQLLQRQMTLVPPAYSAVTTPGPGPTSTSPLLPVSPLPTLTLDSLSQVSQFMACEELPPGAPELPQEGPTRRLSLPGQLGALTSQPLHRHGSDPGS
Chain of Voltage-gated inwardly rectifying potassium channel KCNH2 (Q12809 whole entry): as above
Chain of CYP3A4 (P08684 whole entry): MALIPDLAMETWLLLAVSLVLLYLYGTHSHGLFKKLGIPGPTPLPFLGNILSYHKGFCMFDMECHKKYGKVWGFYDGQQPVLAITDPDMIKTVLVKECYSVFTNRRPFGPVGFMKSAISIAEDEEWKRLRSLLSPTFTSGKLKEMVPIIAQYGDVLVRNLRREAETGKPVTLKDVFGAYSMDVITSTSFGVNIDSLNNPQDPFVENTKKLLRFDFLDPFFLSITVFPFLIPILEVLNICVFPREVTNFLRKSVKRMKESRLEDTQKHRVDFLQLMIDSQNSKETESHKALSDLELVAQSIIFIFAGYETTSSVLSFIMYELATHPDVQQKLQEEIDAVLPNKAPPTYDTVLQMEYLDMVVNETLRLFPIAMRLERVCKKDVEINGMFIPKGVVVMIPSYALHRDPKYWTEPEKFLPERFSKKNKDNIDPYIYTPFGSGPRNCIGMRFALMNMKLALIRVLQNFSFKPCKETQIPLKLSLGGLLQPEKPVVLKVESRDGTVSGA
Chain of CYP2C9 (P11712 whole entry): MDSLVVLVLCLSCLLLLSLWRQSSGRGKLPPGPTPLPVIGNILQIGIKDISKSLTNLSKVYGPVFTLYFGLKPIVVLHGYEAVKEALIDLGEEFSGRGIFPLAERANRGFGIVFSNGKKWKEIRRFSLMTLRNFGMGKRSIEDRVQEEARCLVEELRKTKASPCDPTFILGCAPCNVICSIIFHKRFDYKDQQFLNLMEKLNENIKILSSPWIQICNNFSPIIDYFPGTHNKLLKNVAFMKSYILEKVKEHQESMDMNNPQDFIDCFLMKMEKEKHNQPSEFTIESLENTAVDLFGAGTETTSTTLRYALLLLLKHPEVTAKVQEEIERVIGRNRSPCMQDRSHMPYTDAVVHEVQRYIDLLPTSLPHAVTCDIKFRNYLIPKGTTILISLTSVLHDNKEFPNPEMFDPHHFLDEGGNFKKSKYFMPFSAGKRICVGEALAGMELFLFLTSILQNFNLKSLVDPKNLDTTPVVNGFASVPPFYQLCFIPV
Chain of CYP2D6 (P10635 whole entry): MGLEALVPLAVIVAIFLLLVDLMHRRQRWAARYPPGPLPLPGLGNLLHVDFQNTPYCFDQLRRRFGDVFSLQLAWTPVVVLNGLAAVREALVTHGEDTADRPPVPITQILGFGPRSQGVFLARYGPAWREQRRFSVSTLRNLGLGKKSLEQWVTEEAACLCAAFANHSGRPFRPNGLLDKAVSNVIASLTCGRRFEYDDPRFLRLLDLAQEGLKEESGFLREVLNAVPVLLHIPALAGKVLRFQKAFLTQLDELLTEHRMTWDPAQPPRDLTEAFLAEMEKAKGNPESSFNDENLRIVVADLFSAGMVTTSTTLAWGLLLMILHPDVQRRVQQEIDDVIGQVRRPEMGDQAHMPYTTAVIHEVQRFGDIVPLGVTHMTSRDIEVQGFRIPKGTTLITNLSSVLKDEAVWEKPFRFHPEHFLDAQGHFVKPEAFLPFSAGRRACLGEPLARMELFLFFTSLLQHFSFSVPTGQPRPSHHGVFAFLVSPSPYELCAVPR

SMILES: NC1(COc2cc(F)c3c(c2)CC(CNCCC2CN(c4cnc5c(n4)NC(=O)CO5)C(=O)O2)C3)CC1 (configuration not stated)
- solubility [1]: Soluble
- MIC (Escherichia coli [2]): 0.125 µg/mL (≈ 0.244 µM)
- MIC (Acinetobacter baumannii [3]): 2 µg/mL (≈ 3.9 µM)
- MIC (Klebsiella pneumoniae [4]): 1 µg/mL (≈ 1.95 µM)
- MIC (Pseudomonas aeruginosa [5]): 0.25 µg/mL (≈ 0.488 µM)
- IC50 (DNA gyrase): 60 nM
- inhibition at 10 µM (hERG (KCNH2) [6]): < 1%
- MIC (Escherichia coli [7]): 0.06 µg/mL (≈ 0.117 µM)
- MIC (Escherichia coli [8]): ≤ 0.06 µg/mL
- MIC (Escherichia coli [9]): 0.125 µg/mL (≈ 0.244 µM)
- MIC (Escherichia coli [10]): 0.25 µg/mL (≈ 0.488 µM)
- MIC (Acinetobacter baumannii [11]): 2 µg/mL (≈ 3.9 µM)
- MIC (Acinetobacter baumannii [12]): 0.5 µg/mL (≈ 0.976 µM)
- MIC (Klebsiella pneumoniae [13]): ≤ 0.06 µg/mL
- MIC (Klebsiella pneumoniae [14]): 1 µg/mL (≈ 1.95 µM)
- MIC (Klebsiella pneumoniae [15]): 2 µg/mL (≈ 3.9 µM)
- MIC (Pseudomonas aeruginosa [16]): 1 µg/mL (≈ 1.95 µM)
- MIC (Pseudomonas aeruginosa [17]): 1 µg/mL (≈ 1.95 µM)
- MIC (Staphylococcus aureus [18]): 0.5 µg/mL (≈ 0.976 µM)
- MIC (Staphylococcus aureus [19]): 0.125 µg/mL (≈ 0.244 µM)
- IC50 [20]: 30 nM
- inhibition at 1 µM (hERG (KCNH2) [21]): < 1%
- IC50 [22]: > 20000 nM
- IC20 (hERG (KCNH2) [23]): > 10000 nM
- Stability [24]: Stable
- Stability [25]: Stable
- Stability [26]: Stable
- Stability [27]: Stable
- inhibition at 10 µM (CYP3A4): < 25%
- inhibition at 10 µM (CYP2D6): < 25%
- inhibition at 10 µM (CYP2C9): < 25%
- CC50 [28]: > 100000 nM
- fraction unbound [29]: 0.4
- fraction unbound [30]: 0.4
- fraction unbound [31]: 0.32
- Activity (Pseudomonas aeruginosa [32]): Active
- Activity (Pseudomonas aeruginosa [33]): Active
- Activity (Pseudomonas aeruginosa [34]): 2.6 log10CFU
- dose excreted at 48 h [35]: 5%
- Stability [36]: Stable
- Stability [37]: Stable
- Activity (Pseudomonas aeruginosa [38]): inactive
